Experimental data: patent US20250333407A1, “Compounds and Their Use for Treatment of Hemoglobinopathies” (Bristol-Myers Squibb Company, priority 2024, published 2025)

Legend:
Assay type in all cases: cell-based
ZBTB7A = target: T1, ZBTB7A (Homo sapiens, UniProt O95365+Q96SW2); experiment: HUDEP-2 ZBTB7A HiBiT degradation assay; conditions: HiBiT-tagged ZBTB7A degradation in HUDEP-2 cells, 24 hours of treatment; read-out: ZBTB7A EC50
T1 construct: HUDEP-2 cells engineered to express a HiBiT tag in either the WIZ (Widely interspaced zinc finger) or ZBTB7A
Method: (§1) WIZ Assay and ZBTB7A EC50 Assays. The HiBiT degradation assays for WIZ and ZBTB7A in HUDEP-2 cells were performed as described below. HUDEP-2 cells engineered to express a HiBiT tag in either the WIZ (Widely interspaced zinc finger) or ZBTB7A (Zinc Finger And BTB Domain Containing 7A) proteins were maintained in low attachment flasks in StemSpan SFEM II media supplemented with Penicillin-Streptomycin (50 U/mL), rhSCF (50 ng/mL), rhEPO (3 IU/mL), dexamethasone (0.4 μg/mL) and doxycycline (1 μg/mL). Prior to start of the assay, cell count and viability were measured by trypan blue exclusion using the Vi-cell XR cell viability analyzer.
For the HUDEP-2 ZBTB7A HiBiT assay, cell count and viability were measured by trypan blue exclusion using the Vi-cell XR cell viability analyzer and the cells were transferred to a 50 mL conical and centrifuged at 500 g for five minutes. Cells were resuspended in fresh IMDM media supplemented with L-Glutamine (1×), Penicillin-Streptomycin (50 U/mL), holo-transferrin (330 μg/mL), heparin (2 IU/mL), r-human Insulin (10 μg/mL), rhEPO (3 IU/mL), rhSCF (100 ng/mL)+Dox (1 μg/mL) and 5% human plasma in low attachment flasks, which were placed in a 37° C. incubator with 5% CO2. After 48 hours, cell count and viability were measured by trypan blue exclusion using the Vi-cell XR cell viability analyzer. The HUDEP-2 ZBTB7A cells were transferred to a 50 mL conical, centrifuged at 500 g for five minutes and resuspended at a density of 1.0×10^6 cells/ml in IMDM media supplemented with L-Glutamine (1×), Penicillin-Streptomycin (50 U/mL), holo-transferrin (330 μg/mL), heparin (2 IU/mL), r-human Insulin (10 μg/mL), rhEPO (3 IU/mL), rhSCF (100 ng/mL)+Dox (1 μg/mL) and 5% human plasma. Forty microliters of cell suspension was dispensed into 384-well Low Flange White Flat Bottom Polystyrene TC-treated Microplates containing pre-dispensed compounds, using a VIAFLO 384 liquid hander, and placed in a 37° C. incubator with 5% CO2. […] After 24 hours of treatment, 40 μL Nano-Glo HiBiT Lytic Detection System reagent was dispensed into each well using a VIAFLO 384 liquid hander. Plates were incubated for 25 minutes at room temperature and the luminescence was read as relative luminescent units using the EnVision plate reader. EC50 and Y-min values were calculated using curves calculated from dotmatics software after the normalization to the DMSO control of 10 different concentrations: 10, 3.33, 1.11, 0.37, 0.12, 0.04 0.0137, 0.0046, 0.0015 and […] respectively.

WIZ = target: T2, WIZ (Homo sapiens, UniProt O95785+Q96SW2); experiment: HUDEP-2 WIZ HiBiT degradation assay; conditions: HiBiT-tagged WIZ degradation in HUDEP-2 cells, 24 hours of treatment; read-out: WIZ EC50
T2 construct: HUDEP-2 cells engineered to express a HiBiT tag in either the WIZ (Widely interspaced zinc finger) or ZBTB7A
Method: as §1
For the HUDEP-2 WIZ HiBiT assay, cells were transferred to a 50 mL conical and centrifuged at 500 g for five minutes. Cells were resuspended in fresh StemSpan SFEM II media supplemented with Penicillin-Streptomycin (50 U/mL), rhSCF (50 ng/mL), rhEPO (3 IU/mL), dexamethasone (0.4 μg/mL) and doxycycline (1 μg/mL) at a density of 1.0×10^6 cells/ml. Forty microliters of cell suspension was dispensed into 384-well Low Flange White Flat Bottom Polystyrene TC-treated Microplates containing pre-dispensed compounds, using a VIAFLO 384 liquid hander, and placed in a 37° C. incubator with 5% CO2. […] After 24 hours of treatment, 40 μL Nano-Glo HiBiT Lytic Detection System reagent was dispensed into each well using a VIAFLO 384 liquid hander. Plates were incubated for 25 minutes at room temperature and the luminescence was read as relative luminescent units using the EnVision plate reader. EC50 and Y-min values were calculated using curves calculated from dotmatics software after the normalization to the DMSO control of 10 different concentrations: 10, 3.33, 1.11, 0.37, 0.12, 0.04 0.0137, 0.0046, 0.0015 and […] respectively.

HbF = HbF HiBiT induction assay in HUDEP-2 cells; conditions: HUDEP-2 cells with HiBiT tag in HBG1/2, 72 hours of treatment; area under the dose response curve, higher AUC = greater HbF induction
Method: HbF HiBiT induction assay. The HiBiT induction assay for HbF in HUDEP-2 cells was performed as described below. HUDEP-2 cells engineered to express a HiBiT tag in HBG1/2 were maintained at a density of 0.1-1×10^6 cells/ml in StemSpan SFEM II supplemented with 1% penicillin/streptomycin, hSCF (50 ng/mL), erythropoietin (EPO; 3 IU/mL), dexamethasone (DEX; 0.4 μg/mL), and doxycycline hyclate (DOX; 1 μg/mL). The cells were cultured in low adherence flasks, in a humidified incubator, set at 37° C. with 5% CO2. Cell counts and viability were measured by trypan blue exclusion using the Vi-CELL XR cell viability analyzer and the cell growth was consistently maintained in log phase.
Prior to the start of experiments, HbF HiBiT-tagged HUDEP-2 cells were transferred to a 50 mL conical and centrifuged at 500×g for 5 minutes, the supernatant removed, and the pellet washed in 5 mL of 1×PBS. The washed cells were centrifuged again at 500×g for 5 minutes and resuspended in IMDM containing; 1×glutamine, 1×penicillin/streptomycin, holo-transferrin (330 μg/mL), heparin (2 IU/mL), r-human insulin (10 μg/mL), EPO (3 IU/mL), 5% human plasma, hSCF (100 ng/mL) and DOX (1 μg/mL) to a final density of 0.3×10^6 cells/mL. Forty microliters of cell suspension were dispensed into 384-well Low Flange White Flat Bottom Polystyrene TC-treated Microplates containing pre-dispensed compounds, using a VIAFLO 384 liquid hander, and placed in a humidified incubator at 37° C. with 5% CO2. […] After 72 hours of treatment, 40 μL of Nano-Glo HiBiT Lytic Solution (prepared according to manufacturer's instructions) were dispensed into each well using a VIAFLO 384 liquid handler, and the plates were shaken for 20 seconds. Plates were incubated for 20 minutes at room temperature, and the luminescence was read as relative luminescent units using an EnVision plate reader.
Dose response curves were generated, and EC50, Ymax, and then area under the curve (AUC) values were calculated. HbF induction was measured using the calculated area under the curve (AUC) value, with higher AUC values indicative of greater HbF induction relative to lower AUC values.

T2 sequence (O95785 whole entry): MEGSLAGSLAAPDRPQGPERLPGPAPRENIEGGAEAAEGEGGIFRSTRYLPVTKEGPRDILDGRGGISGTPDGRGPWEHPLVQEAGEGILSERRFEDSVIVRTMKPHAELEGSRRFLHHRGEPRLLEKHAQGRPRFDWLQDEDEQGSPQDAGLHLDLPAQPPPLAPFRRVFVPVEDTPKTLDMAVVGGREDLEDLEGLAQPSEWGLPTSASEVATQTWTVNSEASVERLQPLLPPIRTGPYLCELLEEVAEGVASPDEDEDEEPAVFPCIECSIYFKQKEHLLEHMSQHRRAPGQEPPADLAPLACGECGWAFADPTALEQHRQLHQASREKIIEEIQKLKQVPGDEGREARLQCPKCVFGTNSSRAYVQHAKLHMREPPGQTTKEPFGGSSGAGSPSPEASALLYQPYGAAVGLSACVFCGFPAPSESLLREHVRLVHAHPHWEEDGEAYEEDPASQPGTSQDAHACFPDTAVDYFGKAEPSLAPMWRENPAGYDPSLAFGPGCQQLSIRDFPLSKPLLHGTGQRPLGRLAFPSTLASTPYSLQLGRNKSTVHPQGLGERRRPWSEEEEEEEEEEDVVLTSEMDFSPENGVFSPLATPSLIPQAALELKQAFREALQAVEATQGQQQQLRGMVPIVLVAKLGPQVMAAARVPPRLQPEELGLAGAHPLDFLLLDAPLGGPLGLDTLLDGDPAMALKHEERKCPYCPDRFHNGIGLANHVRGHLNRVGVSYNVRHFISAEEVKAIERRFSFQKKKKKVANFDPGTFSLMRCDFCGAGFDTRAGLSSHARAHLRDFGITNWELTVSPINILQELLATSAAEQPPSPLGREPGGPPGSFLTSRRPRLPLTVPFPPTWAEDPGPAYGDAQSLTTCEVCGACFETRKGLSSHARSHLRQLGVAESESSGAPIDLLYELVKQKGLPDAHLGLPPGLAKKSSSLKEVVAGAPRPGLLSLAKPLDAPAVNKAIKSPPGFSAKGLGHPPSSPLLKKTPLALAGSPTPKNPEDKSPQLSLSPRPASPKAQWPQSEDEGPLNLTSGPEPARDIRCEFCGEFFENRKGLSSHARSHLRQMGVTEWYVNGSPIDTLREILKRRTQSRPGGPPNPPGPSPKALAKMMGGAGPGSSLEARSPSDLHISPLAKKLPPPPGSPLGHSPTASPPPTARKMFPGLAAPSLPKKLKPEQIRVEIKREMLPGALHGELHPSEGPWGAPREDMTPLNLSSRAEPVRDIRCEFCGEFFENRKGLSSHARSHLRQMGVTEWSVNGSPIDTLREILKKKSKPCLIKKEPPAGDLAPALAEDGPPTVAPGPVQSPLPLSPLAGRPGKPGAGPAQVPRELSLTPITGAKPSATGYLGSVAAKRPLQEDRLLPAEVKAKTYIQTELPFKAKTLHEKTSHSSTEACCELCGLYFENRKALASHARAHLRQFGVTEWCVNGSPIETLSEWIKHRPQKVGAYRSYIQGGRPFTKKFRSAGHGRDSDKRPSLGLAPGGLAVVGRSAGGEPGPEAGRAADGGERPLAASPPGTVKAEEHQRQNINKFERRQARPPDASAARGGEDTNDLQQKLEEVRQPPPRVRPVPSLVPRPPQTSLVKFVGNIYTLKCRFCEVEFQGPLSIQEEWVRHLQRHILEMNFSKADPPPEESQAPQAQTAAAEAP
T2 sequence (Q96SW2 whole entry): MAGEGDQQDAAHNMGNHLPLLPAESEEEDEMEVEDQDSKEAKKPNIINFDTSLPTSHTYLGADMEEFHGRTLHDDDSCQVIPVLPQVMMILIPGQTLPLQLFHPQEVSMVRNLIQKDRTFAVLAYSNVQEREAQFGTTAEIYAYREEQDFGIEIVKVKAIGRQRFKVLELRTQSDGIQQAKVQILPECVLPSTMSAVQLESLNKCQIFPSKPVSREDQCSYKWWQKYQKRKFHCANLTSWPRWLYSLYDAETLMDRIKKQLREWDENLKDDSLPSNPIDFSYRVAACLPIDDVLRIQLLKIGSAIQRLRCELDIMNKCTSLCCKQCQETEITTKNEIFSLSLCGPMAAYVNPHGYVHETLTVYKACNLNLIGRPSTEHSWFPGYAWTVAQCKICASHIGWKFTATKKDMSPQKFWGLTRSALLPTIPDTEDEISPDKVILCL
T2 sequence (Q16531 whole entry partner): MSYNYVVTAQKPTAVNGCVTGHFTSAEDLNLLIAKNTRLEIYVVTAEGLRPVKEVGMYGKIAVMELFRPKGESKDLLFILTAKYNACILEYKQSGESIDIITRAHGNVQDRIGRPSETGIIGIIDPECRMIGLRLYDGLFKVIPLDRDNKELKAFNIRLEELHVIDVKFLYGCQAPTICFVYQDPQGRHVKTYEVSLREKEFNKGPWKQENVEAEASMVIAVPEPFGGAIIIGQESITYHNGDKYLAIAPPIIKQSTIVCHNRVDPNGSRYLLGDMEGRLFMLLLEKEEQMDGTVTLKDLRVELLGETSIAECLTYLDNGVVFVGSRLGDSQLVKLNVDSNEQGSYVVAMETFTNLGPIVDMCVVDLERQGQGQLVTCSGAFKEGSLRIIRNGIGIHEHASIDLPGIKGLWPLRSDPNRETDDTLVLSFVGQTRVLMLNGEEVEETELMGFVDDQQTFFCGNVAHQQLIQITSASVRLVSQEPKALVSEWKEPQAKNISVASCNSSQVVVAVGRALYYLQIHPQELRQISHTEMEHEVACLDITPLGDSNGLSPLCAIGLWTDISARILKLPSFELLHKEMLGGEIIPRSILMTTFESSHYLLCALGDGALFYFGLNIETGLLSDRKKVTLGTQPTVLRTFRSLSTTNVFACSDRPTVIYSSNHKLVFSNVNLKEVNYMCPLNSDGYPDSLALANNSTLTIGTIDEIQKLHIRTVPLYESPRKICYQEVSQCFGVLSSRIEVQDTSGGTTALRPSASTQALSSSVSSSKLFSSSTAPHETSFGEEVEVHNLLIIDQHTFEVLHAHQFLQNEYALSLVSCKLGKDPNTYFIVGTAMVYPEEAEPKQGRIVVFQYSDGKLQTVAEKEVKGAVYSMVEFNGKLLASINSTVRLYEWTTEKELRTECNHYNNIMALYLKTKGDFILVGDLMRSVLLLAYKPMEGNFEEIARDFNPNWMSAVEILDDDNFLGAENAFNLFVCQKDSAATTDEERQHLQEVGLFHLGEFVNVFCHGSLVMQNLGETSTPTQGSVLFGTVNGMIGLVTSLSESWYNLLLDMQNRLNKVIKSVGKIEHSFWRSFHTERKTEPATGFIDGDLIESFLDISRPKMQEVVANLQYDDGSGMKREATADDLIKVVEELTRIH
T1 sequence (O95365 whole entry): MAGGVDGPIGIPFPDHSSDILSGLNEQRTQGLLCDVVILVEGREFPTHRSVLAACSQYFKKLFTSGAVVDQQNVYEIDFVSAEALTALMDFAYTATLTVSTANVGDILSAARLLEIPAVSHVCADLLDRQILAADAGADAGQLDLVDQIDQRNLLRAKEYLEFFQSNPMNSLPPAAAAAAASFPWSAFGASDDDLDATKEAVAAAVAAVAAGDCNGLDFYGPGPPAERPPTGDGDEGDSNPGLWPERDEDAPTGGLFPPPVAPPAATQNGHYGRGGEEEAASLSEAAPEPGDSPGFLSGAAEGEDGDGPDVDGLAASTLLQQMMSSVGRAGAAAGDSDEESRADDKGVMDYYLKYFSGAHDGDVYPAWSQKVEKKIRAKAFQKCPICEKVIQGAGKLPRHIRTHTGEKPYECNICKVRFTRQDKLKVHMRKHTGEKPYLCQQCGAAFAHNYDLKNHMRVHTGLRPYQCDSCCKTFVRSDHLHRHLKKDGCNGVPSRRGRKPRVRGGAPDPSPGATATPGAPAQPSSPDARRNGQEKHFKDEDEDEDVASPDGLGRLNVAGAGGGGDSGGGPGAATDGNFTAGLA
T1 sequence (Q96SW2 whole entry): as the sequence (Q96SW2 whole entry) above
T1 sequence (Q16531 whole entry partner): as the sequence (Q16531 whole entry partner) above

SMILES	DC50 (ZBTB7A) [µM]	DC50 (WIZ) [µM]	HBF AUC (HbF)
Cc1cc(-c2cc3c(cc2Nc2cccc4c2C(=O)N([C@H]2CCC(=O)NC2=O)C4=O)N(C)[C@H](C)CO3)ccn1 [Compound 3, 4-(((R)-3,4-dimethyl-7-(2-methylpyridin-4-yl)-3,4-dihydro-2H-benzo[b][1,4]oxazin-6-yl)amino)-2-((S)-2,6-dioxopiperidin-3-yl)isoindoline-1,3-dione]	0.029	0.017	+++ (+++ = AUC ≥ 150)
Cc1cc(-c2cc3c(cc2Nc2cccc4c2C(=O)N([C@H]2CCC(=O)NC2=O)C4=O)N(C)[C@@H](C)CO3)ccn1 [Compound 4, 4-(((S)-3,4-dimethyl-7-(2-methylpyridin-4-yl)-3,4-dihydro-2H-benzo[b][1,4]oxazin-6-yl)amino)-2-((S)-2,6-dioxopiperidin-3-yl)isoindoline-1,3-dione]	0.026	0.083	+++ (+++ = AUC ≥ 150)
Cc1cc(-c2cc3c(cc2Nc2cccc4c2C(=O)N([C@H]2CCC(=O)NC2=O)C4=O)N(C)C(=O)[C@@H](C)O3)ccn1 [Compound 6, 4-(((R)-2,4-dimethyl-7-(2-methylpyridin-4-yl)-3-oxo-3,4-dihydro-2H-benzo[b][1,4]oxazin-6-yl)amino)-2-((S)-2,6-dioxopiperidin-3-yl)isoindoline-1,3-dione]	0.049	0.009	+ (+ = 15 ≤ AUC < 100)
CN1C(=O)COc2cc(-c3ccnc(C(F)F)c3)c(Nc3cccc4c3C(=O)N([C@H]3CCC(=O)NC3=O)C4=O)cc21 [Compound 9, (S)-4-((7-(2-(difluoromethyl)pyridin-4-yl)-4-methyl-3-oxo-3,4-dihydro-2H-benzo[b][1,4]oxazin-6-yl)amino)-2-(2,6-dioxopiperidin-3-yl)isoindoline-1,3-dione]	0.032	0.024	+ (+ = 15 ≤ AUC < 100)
Cc1cc(-c2cc3c(cc2Nc2cccc4c2C(=O)N(C2CCC(=O)NC2=O)C4=O)N(C)C(=O)C(C)(C)C3)ccn1 (centres unmarked) [Compound 85, 2-(2,6-dioxopiperidin-3-yl)-4-((1,3,3-trimethyl-6-(2-methylpyridin-4-yl)-2-oxo-1,2,3,4-tetrahydroquinolin-7-yl)amino)isoindoline-1,3-dione]	0.043	0.026	

Now those with a lower DC50 (ZBTB7A), led by results:

DC50 (ZBTB7A) [µM]	DC50 (WIZ) [µM]	SMILES	HBF AUC (HbF)
0.018	0.021	Cc1cc(-c2cc3c(cc2Nc2cccc4c2C(=O)N(C2CCC(=O)NC2=O)C4=O)N(C)CCO3)ccn1 (centres unmarked) [Compound 1, 2-(2,6-dioxopiperidin-3-yl)-4-((4-methyl-7-(2-methylpyridin-4-yl)-3,4-dihydro-2H-benzo[b][1,4]oxazin-6-yl)amino)isoindoline-1,3-dione]	+ (+ = 15 ≤ AUC < 100)
0.011	0.006	Cc1cc(-c2cc3c(cc2Nc2cccc4c2C(=O)N(C2CCC(=O)NC2=O)C4=O)N(C)C(=O)CO3)ccn1 (centres unmarked) [Compound 2, 2-(2,6-dioxopiperidin-3-yl)-4-((4-methyl-7-(2-methylpyridin-4-yl)-3-oxo-3,4-dihydro-2H-benzo[b][1,4]oxazin-6-yl)amino)isoindoline-1,3-dione]	+++ (+++ = AUC ≥ 150)
0.019	0.015	Cc1cc(-c2cc3c(cc2Nc2cccc4c2C(=O)N([C@H]2CCC(=O)NC2=O)C4=O)N(C)C(=O)[C@H](C)O3)ccn1 [Compound 5, 4-(((S)-2,4-dimethyl-7-(2-methylpyridin-4-yl)-3-oxo-3,4-dihydro-2H-benzo[b][1,4]oxazin-6-yl)amino)-2-((S)-2,6-dioxopiperidin-3-yl)isoindoline-1,3-dione]	+ (+ = 15 ≤ AUC < 100)
0.009	0.007	Cc1cc(-c2cc3c(cc2Nc2cccc4c2C(=O)N([C@H]2CCC(=O)NC2=O)C4=O)N(C)C(=O)CO3)c(F)cn1 [Compound 7, (S)-2-(2,6-dioxopiperidin-3-yl)-4-((7-(5-fluoro-2-methylpyridin-4-yl)-4-methyl-3-oxo-3,4-dihydro-2H-benzo[b][1,4]oxazin-6-yl)amino)isoindoline-1,3-dione]	+++ (+++ = AUC ≥ 150)
0.021	0.015	Cc1cc(-c2cc3c(cc2Nc2cccc4c2C(=O)N([C@H]2CCC(=O)NC2=O)C4=O)N(C)C(=O)CO3)cc(C)n1 [Compound 8, (S)-4-((7-(2,6-dimethylpyridin-4-yl)-4-methyl-3-oxo-3,4-dihydro-2H-benzo[b][1,4]oxazin-6-yl)amino)-2-(2,6-dioxopiperidin-3-yl)isoindoline-1,3-dione]	+++ (+++ = AUC ≥ 150)
0.02	0.012	Cc1cc(-c2cc3c(cc2Nc2cccc4c2C(=O)N([C@H]2CCC(=O)NC2=O)C4=O)N(C)C(=O)CO3)cc(N)n1 [Compound 10, (S)-4-((7-(2-amino-6-methylpyridin-4-yl)-4-methyl-3-oxo-3,4-dihydro-2H-benzo[b][1,4]oxazin-6-yl)amino)-2-(2,6-dioxopiperidin-3-yl)isoindoline-1,3-dione]	++ (++ = 100 ≤ AUC < 150)
0.017	0.021	Cc1cc(-c2cc3c(cc2Nc2cccc4c2C(=O)N([C@H]2CCC(=O)NC2=O)C4=O)N(C)C(=O)OC3)ccn1 [Compound 11, (S)-2-(2,6-dioxopiperidin-3-yl)-4-((1-methyl-6-(2-methylpyridin-4-yl)-2-oxo-1,4-dihydro-2H-benzo[d][1,3]oxazin-7-yl)amino)isoindoline-1,3-dione]	++ (++ = 100 ≤ AUC < 150)
